Assay [1] relates to Pseudomonas aeruginsa, strain Mangalore. The settings on record: EXPT 1-3 on separate lines.
In assay [2] the test system is 4 strains of Pseudomonas aeruginosa.
Experimental: Antimicrobial activity was assayed by the MIC Technique using 4 strains of Pseudomonas aeruginosa.
Assay [3] deals with human polymorphonuclear leukocytes. Put plainly: Chemotaxis for human polymorphonuclear leukocytes. Format: cell-based. The note with it: human PMN, FIG. 2 text and summary (Table 6).
For assay [4], the target named is T1, surface receptor of rabbit polymorphonuclear leukocytes (Oryctolagus cuniculus, UniProt Q05394).
T1 construct: endogenous in cells; host or cells: rabbit polymorphonuclear leukocytes (neutrophils)
T1 sequence (Q05394 1-352): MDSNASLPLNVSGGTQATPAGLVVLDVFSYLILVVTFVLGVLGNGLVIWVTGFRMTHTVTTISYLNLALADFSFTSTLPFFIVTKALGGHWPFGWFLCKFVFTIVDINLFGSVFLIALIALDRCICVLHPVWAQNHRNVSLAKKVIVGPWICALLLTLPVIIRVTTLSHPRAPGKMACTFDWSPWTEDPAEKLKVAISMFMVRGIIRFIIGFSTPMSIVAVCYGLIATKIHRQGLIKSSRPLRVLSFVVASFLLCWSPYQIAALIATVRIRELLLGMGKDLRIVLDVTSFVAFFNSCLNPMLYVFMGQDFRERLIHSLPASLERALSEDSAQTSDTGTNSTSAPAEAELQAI
Put plainly: Inhibition of F-Nle-leu (3H)PHE binding to rabbit PMN. The settings on record: F-Nle-leu (3H)PHE, rabbit PMN.

The test system of a further assay is neutrophils. In kind it is cell-based, rabbit. The note with it: molar concentration causing 50 percent of maximal release; 10 μg/ml cytochalasin B; five minutes at 37° C.
In assay [5] the test system is Pseudomonas aeruginosa ATCC 27835. Briefly: Kirby-Bauer disc assay, inhibitory zone size. Format: cell-based. The settings on record: P. aeruginosa; disc FML alone; 6 mm = disc, no inhibition.
Experimental: (§1) In these tables antimicrobial activity is expressed as inhibitory zone size as performed by the Kirby-Bauer assay.
(§2) The experiments in Tables 10-14 were performed using the following bacteria, media and experimental protocol:
(§3) The bacteria were Escherichia coli ATCC 25922 and Pseudomonas aeruginosa ATCC 27835.
(§4) The media was Trypticase soy agar (Baltimore Biological Laboratories, BBL) used as a general growth medium. Broth media was Brain heart infusion broth (BBL) for E. coli and medium 81 [trypticase soy broth without dextrose plus 1% potassium nitrate] for P. aeruginosa.
(§5) Antimicrobial susceptibility was tested on M9 medium [a glucose minimal salts medium (Miller, 1972)] solidified with 1.5% agar (Difco) for the base or 0.7% agar for overlay.
The following is the experimental protocol: Broth cultures of E. coli or P. aeruginosa were grown overnight in broth at 35° C. Cultures were diluted to visually match a 0.5 McFarland turbidity standard (Matsen and Barry, 1974); the numbers of organisms in this suspension ordinarily were .congruent.10^8 viable cells per ml. Ten microliter (ul) was inoculated into 10 ml. of 0.7% M9 agar that was melted and cooled to 46°-50° C. This was overlaid onto a 50 ml base of 1.5% M9 agar in 15 cm diameter petri dishes. […] Diameters of zones of inhibition of bacterial growth were measued with a vernier caliper and recorded to the nearest 0.1 mm.
Assay [6] deals with Escherichia coli ATCC 25922. Put plainly: Kirby-Bauer disc assay, inhibitory zone size. The settings on record: E. coli; disc FML alone; 6 mm = disc, no inhibition. Format: cell-based.
Experimental: as §1, §2, §3, §4, §5
The following is the experimental protocol: Broth cultures of E. coli or P. aeruginosa were grown overnight in broth at 35° C. Cultures were diluted to visually match a 0.5 McFarland turbidity standard (Matsen and Barry, 1974); the numbers of organisms in this suspension ordinarily were .congruent.10^8 viable cells per ml. Ten microliter (ul) was inoculated into 10 ml. of 0.7% M9 agar that was melted and cooled to 46°-50° C. This was overlaid onto a 50 ml base of 1.5% M9 agar in 15 cm diameter petri dishes. The agar overlay was allowed to harden at room temperature for 30 min. Antimicrobial tests disks were placed on the surface of the agar, and the plates were incubated overnight at 35° C. Diameters of zones of inhibition of bacterial growth were measued with a vernier caliper and recorded to the nearest 0.1 mm.
For assay [7], the system named is Rabbit polymorphononuclear leukocytes (neutrophils). In kind it is cell-based. The note with it: concentration giving 50 percent of maximum activity; mean of at least three experiments; 30 minutes at 37° C. Here is the method: Rabbit polymorphononuclear leukocytes (neutrophils) were obtained 12 to 14 hours after the intraperitoneal injection of 0.1 percent glycogen, as described in Becker et al (Z. Immunitaetsforsch Exp. Klin. Immunol., Volume 143, Page 466 1972). They were washed in Hanks' balanched salt solution containing 0.01 M tris (hydroxymethyl) aminomethane, pH 7.2, 1 mg/ml of glucose, and 1 mg/ml of crystalline bovine serum albumin. The Hanks' balanced salt solution was the buffer used throughout the work.
The assay employed a modified Boyden chamber as described by Becker et al, supra. […] The loaded chambers were incubated for 30 minutes at 37° C. This time interval was chosen as giving, for the particular batch of filters used, the greatest difference between the number of cells moving into the filter with no peptide in the lower compartment (background) and the maximum number of cells moving into the filter when stimulated by peptide. At the end of the incubation the filters were removed and stained and the number of cells in five high-power (400 magnification) fields (5 HPF) were counted and averaged. The results reported are the means of duplicate chambers.
The migration enhancing activities of different peptides were compared essentially as described by Schiffmann et al (J. Immunol., Volume […], Page 1830, 1975) and Showell et al (J. Immunol., Volume 116, Page 99, 1976). In measuring the relative activity of the peptides, a peptide was diluted so that each concentration was one quarter that of the next higher concentration. The concentrations of peptides were chosen on the basis of preliminary experiments to cover the range giving minimum to maximal activity. The chemotactic activity plotted against the logarithm of the molar concentration of peptide yielded a sigmoidal-shaped dose-response curve. Different peptides tested at the same time with the same cells gave curves which were parallel to each other in their linear portions and had the same maximum. The activities of the different peptides are reported as the ED50, i.e., the concentration of chemotactic factor giving 50 percent of the maximum activity.
The results are reported as the means ED50 ±SE (standard error) as determined by at least three separate experiments. In this assay, the lower the value of the ED50, the greater is the chemotactic activity.

Several values for one entry are separate records, joined by “and”; a condition that tells them apart may be missing. Equal values may be shown once. Residues, ends and D or L forms follow the SMILES beside them. *: point of attachment. For = O=C*

For the compound “formyl-Met-Leu-phe-silver sulfadiazine [FMLP-AgSDZ]”, in assay [1], the “MIC at 24h” value is 40 μg/m and 80 μg/m. In addition, the “concentration at which all strains were inhibited (MIC Technique)” value in assay [2] amounted to 80 μm/ml. Also, the “ED50, M concentration giving 50% max activity” value in assay [3] was 96 nM; in assay [3] (listed as FMLP--AgSDZ), 78 nM. Further, the “ID50, molar concentration which displaced 50% of a labeled attractant from the cell receptor” value in assay [4] was determined as 2 nM.
For the compound `CSCC[C@H](NC=O)C(=O)N[C@@H](CC(C)C)C(=O)O` [f--Met--Leu--OH] (For-Met-Leu-OH), in the assay on neutrophils, the “ED50 ± SE Lysosyme” value was 1.7 ± 0.17 × 10^-6 M. Also, the “Zone Diameter” value in assay [5] and in assay [6] was 6.0 mm each time. Besides, the “Chemotactic Activity ED50 ± SE” value in assay [7] is 4.0 ± 0.45 × 10^-7 M.

The values are drawn from patent US4427660A, “Formyl-methionyl chemotatic peptide antibiotic conjugates useful in treating infections” (priority 1982, dated 1984).
